In one experiment the test system is Streptococcus pneumoniae. Nature of the experiment: Field-effect transistor biological sensing device, detecting of Streptococcus pneumoniae. Format: binding, Streptococcus pneumoniae ATCC 49136. Particulars: amino acid sequence modified onto field-effect transistor; broths of Streptococcus pneumoniae with different concentrations; FIG. 3. An excerpt: UlaG protein is expressed in the cell wall of Streptococcus pneumoniae. The following experimental example used the biological sensing device of the present invention to detect whether the sample included Streptococcus pneumoniae, and the detecting method included the following steps: • 1. The amino acid sequence including the sequence shown in SEQ ID NO: 1 was largely expressed by Escherichia coli. • 2. The amino acid sequence in step 1 was purified, and then modified onto a surface of a field-effect transistor. • 3. The field-effect transistor modified with the amino acid sequence in step 2 was contact to broths of Streptococcus pneumoniae with different concentrations, and the potential difference of the surface of the field-effect transistor modified was measured. The strain of Streptococcus pneumoniae used in this experimental example was ATCC 49136.
FIG. 2 is a schematic view of a biological sensing device 300 according to an embodiment of the present invention detecting a biomolecule 400. […]
FIG. 3 is a potential difference-bacterial concentration diagram of an embodiment of the present invention for the detecting experiment, which the bacterial concentration is represented by the number of colonies per milliliter (mL) of the broth. […] The Streptococcus pneumoniae can be detected by the change in the surface potential.

The subject of the next experiment is UlaG protein. Nature of the experiment: Phage display peptide screening against UlaG protein on ELISA plate. Type of experiment: binding. As to conditions: UlaG protein expressed by Escherichia coli, purified, modified onto ELISA plate. An excerpt:
The screening method of an amino acid according to an embodiment of the present invention included the following steps: • 1. UlaG protein was largely expressed by Escherichia coli • 2. The UlaG protein in step 1 was purified, and then modified onto an enzyme-linked immunosorbent assay (ELISA) plate. • 3. Phage display peptide system was used to perform the screening. The phage display peptide system used bacteriophages with various peptide segments to contact the UlaG protein. After a process of repeated binding, washing, eluting, amplifying, and re-binding, the bacteriophage that can bind to the UlaG protein was selected. • 4. The selected bacteriophage in step 3 was amplified and sequenced by polymerase chain reaction (PCR). The amino acid sequence that can bind to the UlaG protein was then obtained.
Therefore, an amino acid sequence including the sequence shown in SEQ ID NO: 1 or SEQ ID NO: 2 can be used in the recognition of the UlaG protein.

The next experiment deals with Streptococcus mutans. Nature of the experiment: Field-effect transistor biological sensing device, comparative example Streptococcus mutans. As to conditions: FIG. 4. Format: binding. How it is done:
Furthermore, the present experimental example applied Streptococcus mutans as a comparative example using the abovementioned biological sensing device 300 and detecting method. The field-effect transistor modified with the amino acid sequence including the sequence shown in SEC) ID NO: 1 was contact to broths of Streptococcus mutans with different concentrations, and the potential difference of the surface of the field-effect transistor modified was measured.
FIG. 4 is a potential difference-bacterial concentration diagram of a comparative example for a detecting experiment, which the bacterial concentration is represented by the number of colonies per mL of the broth. […] Therefore, Streptococcus […] is not recognized by and bound to the amino acid sequence of the biological sensing device of the present invention.

Turning to “SEQ ID NO: 1: short sequence of 7 amino acids, selected by phage display, that binds the UlaG protein; used on the field-effect transistor (ENIMPVL; amino acid sequence bound to UlaG protein)”, the “potential difference of the surface of the field-effect transistor vs bacterial concentration” value with Streptococcus pneumoniae is “increased with the increase of the bacterial concentration”; with Streptococcus mutans (amino acid sequence modified onto field-effect transistor, broths of Streptococcus mutans with different concentrations) it was “did not change accordingly with the increase of the bacterial concentration”. Also, the “binding affinity to the UlaG protein” value with UlaG protein is reported as “high binding affinities”. The “reaction of the amino acid sequence with Streptococcus mutans” value with Streptococcus mutans (field-effect transistor device) was “does not react”.
Regarding “SEQ ID NO: 2: short sequence of 7 amino acids, selected by phage display, that binds the UlaG protein (ERIMPVL; amino acid sequence bound to UlaG protein)”, the “binding affinity to the UlaG protein” value in the experiment with UlaG protein is reported as “high binding affinities”.

The values are drawn from patent US9958453B2, “Biological sensing method for separating biomolecule” (priority 2015, dated 2018).
